Source: ChEMBL document CHEMBL1764959, “Design, synthesis, and structure-activity relationship studies of thiophene-3-carboxamide derivatives as dual inhibitors of the c-Jun N-terminal kinase” (Bioorg Med Chem, 2011)

Assays:
[1] = target: Mitogen-activated protein kinase 8 (Homo sapiens, UniProt P45983); assay: Inhibition of JNK1 by TR-FRET assay
Liver microsomes = assay: Half life in rat liver microsomes by LC/MS analysis; format: ADME, Microsome
Plasma = assay: Metabolic stability in rat plasma after 60 mins by LC/MS analysis; format: ADME, cell-free; conditions: 1 h

Mitogen-activated protein kinase 8, sequence (P45983 whole entry): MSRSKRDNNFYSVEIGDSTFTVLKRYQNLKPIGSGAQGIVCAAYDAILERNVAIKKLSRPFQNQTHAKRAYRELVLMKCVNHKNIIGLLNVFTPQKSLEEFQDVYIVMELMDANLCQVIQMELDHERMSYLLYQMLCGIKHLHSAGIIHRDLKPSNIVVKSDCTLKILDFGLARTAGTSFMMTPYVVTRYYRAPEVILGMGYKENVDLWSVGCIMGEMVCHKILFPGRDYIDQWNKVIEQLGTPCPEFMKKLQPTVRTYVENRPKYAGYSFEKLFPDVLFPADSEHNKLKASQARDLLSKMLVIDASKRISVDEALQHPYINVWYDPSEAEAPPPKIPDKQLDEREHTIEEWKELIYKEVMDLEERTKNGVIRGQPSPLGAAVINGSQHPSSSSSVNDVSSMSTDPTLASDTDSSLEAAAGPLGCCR

SMILES | IC50 [1] [µM] | t1/2 (Liver microsomes) [min] | Stability (Plasma)
NC(=O)c1ccsc1NC(=O)Cc1cc(F)ccc1F | 5.8 |  | 
NC(=O)c1ccsc1NC(=O)Cc1c[nH]c2ccccc12 | 9.4 |  | 
N#Cc1cccc(CC(=O)Nc2sccc2C(N)=O)c1 | 20.9 |  | 
COc1ccc(CC(=O)Nc2sccc2C(N)=O)cc1 | 5.7 |  | 
NC(=O)c1ccsc1NC(=O)Cc1cc(Cl)c2c(c1)OCCCO2 | 1.9 |  | 
NC(=O)c1ccsc1NC(=O)Cc1cccc(Cl)c1 | 2.6 |  | 
NC(=O)c1ccsc1NC(=O)Cc1ccc(Br)cc1 | > 25 |  | 
COc1cc(CC(=O)Nc2sccc2C(N)=O)cc(OC)c1 | 3.1 |  | 
NC(=O)c1ccsc1NC(=O)c1ccccc1 | 5.9 |  | 
Cc1cnc2sc(CC(=O)Nc3sccc3C(N)=O)cn12 | 2.5 |  | 
NC(=O)c1ccsc1NC(=O)Cc1cccc(F)c1 | 9.4 |  | 
N#Cc1ccsc1NC(=O)Cc1cccc2ccccc12 | > 100 |  | 
NC(=O)c1ccsc1NC(=O)Cc1nc(-c2cccs2)cs1 | > 25 |  | 
NC(=O)c1ccsc1NC(=O)Cc1ccccc1Br | 2.9 |  | 
Cc1sc(NC(=O)Cc2cccc3ccccc23)c(C(N)=O)c1C | 26 |  | 
NC(=O)c1ccsc1NC(=O)Cc1ccc2c(c1)CCC2 | 2.5 |  | 
NC(=O)c1ccsc1NC(=O)CN1CCN(Cc2ccco2)CC1 | 7.6 |  | 
Cc1csc(NC(=O)Cc2cccc3ccccc23)c1C(N)=O | > 25 |  | 

SMILES | IC50 [1] [µM] | t1/2 (Liver microsomes) [min] | Stability (Plasma)
COc1cccc(CC(=O)Nc2sccc2C(N)=O)c1 | 2.6 |  | 
COc1ccc2cc(Br)ccc2c1CC(=O)Nc1sccc1C(N)=O | > 25 |  | 
NC(=O)c1ccsc1NC(=O)Cc1ccc2c(c1)OCO2 | 1.8 |  | 
NC(=O)c1ccsc1NC(=O)CN1CCN(S(=O)(=O)c2ccccc2C(F)(F)F)CC1 | 75.1 |  | 
NC(=O)c1ccsc1NC(=O)Cc1csc2nc(-c3cccs3)cn12 | 2.5 |  | 
NC(=O)c1ccsc1NC(=O)CN1CCOCC1 | > 50 |  | 
NC(=O)c1ccsc1NC(=O)Cc1ccc(OC(F)(F)F)cc1 | 5.8 |  | 
NC(=O)c1ccsc1NC(=O)Cc1ccc(F)c(F)c1 | 10.2 |  | 
NC(=O)c1ccsc1NC(=O)Cc1cccc(Br)c1 | 1.8 | 24 | Stable
CC(C)c1ccc(CC(=O)Nc2sccc2C(N)=O)cc1 | > 25 |  | 
NC(=O)c1ccsc1NC(=O)Cc1cccc([N+](=O)[O-])c1 | > 25 |  | 
NC(=O)c1ccsc1NC(=O)Cc1cc(F)cc2c1OCOC2 | 4.9 |  | 
NC(=O)c1ccsc1NC(=O)Cc1c(F)c(F)c(F)c(F)c1F | > 50 |  | 
Cc1cc(C(N)=O)c(NC(=O)Cc2cccc3ccccc23)s1 | > 25 |  | 
Cc1ccc(CC(=O)Nc2sccc2C(N)=O)cc1 | 4.3 |  | 
NC(=O)c1ccsc1NC(=O)Cc1ccc(F)cc1F | 9.7 |  | 
NC(=O)c1ccsc1NC(=O)Cc1ccccc1F | 8.3 |  | 
NC(=O)c1ccsc1NC(=O)CN1CCN(C(=O)C2CC2)CC1 | 83.5 |  | 
